Experimental findings from publication PMC9377006, “Discovery of Desmuramylpeptide NOD2 Agonists with Single-Digit Nanomolar Potency” (ACS Medicinal Chemistry Letters, 2022) are described below.

The test system of this data set is K562 cancer cells. Description: PBMC cytotoxicity against K562 cancer cells. Type of data set: cell-based. The procedure:
In addition, we also investigated the ability of 40, both alone and in combination with LPS and IFN-γ, to induce direct and nonspecific cytolytic activity of PBMCs against cancer cells. For this purpose, we used a functional cytotoxicity assay based on the coincubation of preactivated PBMCs and fluorescently labeled K562 cancer cells.[33] Among the heterogeneous subpopulations of PBMCs, natural killer (NK) cells and, to a lesser extent, monocytes represent the main effector cell types in this assay. NK cells play an essential role in tumor and viral immunosurveillance, both through direct cytolytic destruction of aberrant cells and by facilitating the recruitment and activation of other immune cells through the secretion of cytokines.[34] In addition to their well-established role in cancer immunotherapy, NK cells thus also provide an attractive target in the development of vaccine adjuvants, particularly when Th1 cellular immune responses are preferred.[35] Other cell populations, however, may contribute to the magnitude of NK cell-mediated responses via cytokine secretion. To account for the contribution of these accessory cells and to more accurately represent in vivo conditions, the entire PBMC population was used instead of isolated NK cells.
Figure 3 2 and 40 synergize with LPS and IFN-γ to induce the cytotoxicity of PBMCs against K562 cancer cells. Following 18 h of stimulation of PBMCs with 2 (1 μM) or 40 (1 μM) in the presence or absence of LPS (1 μg/mL) and IFN-γ (200 U/mL) or the corresponding vehicle (0.1% DMSO; NT), K562 cells were added in a 40:1 effector to target cell ratio. Cytotoxicity was determined after 4 h of coincubation. IL-2 (200 U/mL) was used as the positive control. Data are shown as relative activities to vehicle-treated control (0.1% DMSO) and are the means ± SEMs of duplicates of two independent experiments. Statistical significance was determined by one-way ANOVA followed by Dunnet’s multiple-comparisons test; **, p < 0.01, ***, p < 0.001. […]
4.8 Peripheral blood mononuclear cell cytotoxicity
The PBMC cytotoxicity assays using K562 cells were performed as described previously, with some modifications.2 PBMCs were seeded (400,000 cells/well) in duplicates in 96 -well U-bottom plates and treated with 2 (1 µM) or 40 (1 µM), in the presence or absence of LPS (1 µg/mL) or IFN-γ (200 U/mL), IL-2 (200 U/mL), or the corresponding vehicle (0.1% DMSO) for 18 h. K562 were stained with carboxyfluorescein succinimidyl ester (CFSE, Invitrogen, Carlsbad, CA, USA), washed twice with complete medium, and added (10,000 cells/well) to the pre-treated PBMCs for a final effector cell to target tumor cell ratio of 40:1. After a 4 h coincubation (37 °C, 5% CO2), cells were stained with Sytox Blue dead cell stain (Invitrogen) and analyzed using an Attune NxT flow cytometer (Thermo Fisher Scientific, Waltham, MA, USA) and FlowJo software (Tree Star, Inc., Ashland, OR, USA). Cells that were positive for both CFSE and Sytox Blue were defined as dead K562 cells. PBMCs alone and CFSE-labeled K562 cells alone were also treated with the compounds at the same concentrations and stained with Sytox Blue to exclude any direct cytotoxicity of the compounds towards the PBMCs and cancer cells.
4.9 Cytokine release from peripheral blood mononuclear cells […]

As for `CCOC(=O)CC[C@@H](NC(=O)[C@@H](NC(=O)CNC(=O)/C=C/c1ccc(OC(=O)CC23CC4CC(CC(C4)C2)C3)c(OC)c1)C(C)C)C(=O)OCC` [Compound 40], for the setting “1 μM + LPS 1 μg/mL or IFN-γ 200 U/mL, 18 h, 40:1, 4 h”, the “LPS- and IFN-γ-induced cytotoxic activity of PBMCs against K562, costimulation” value was “significantly enhanced”. For the same compound, the “cytotoxic activity of PBMCs with costimuli, compared to 2” value (1 μM + LPS or IFN-γ) is reported as “slightly stronger activity”. Under “PBMCs stimulated 18 h with 1 μM compound alone, 40:1 effector to target ratio, 4 h coincubation, relative to vehicle”, the “increase in the ratio of dead K562 cells” value was 1.28 fold. Besides, where the note is “cotreatment with 40 and IFN-γ, data not shown”, the “apoptosis in K562 cells in the absence of PBMCs” value is “did not induce apoptosis”.
